Relative viability data for five molecules are collected here from the supplement of paper PMC10307832.

Holding throughout (test): relative viability (nuclei count vs DMSO), 5 days (fraction); higher = more cells survive
For one assay, the system named is NCI-H2342. A digest of the protocol:
(§1)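 Lung cancer cell lines in 1536-well plates got either a single drug or a fixed anchor-drug dose together with five library-drug doses (not always all listed) in √10 steps, by pin tool, on the day after seeding. Nuclei were counted after 5 days, and relative viability is the treated-to-vehicle ratio of nuclei counts. Values are medians of duplicate plates.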

The next assay has as its system NCI-H522. The method in brief: as §1
The subject of the next assay is SW 900. A digest of the protocol: as §1
The subject of the next assay is NCI-H1648. A digest of the protocol: as §1
A further assay deals with NCI-H1563. A digest of the protocol: as §1

Structures are written as SMILES.

For `O=c1[nH]c2ccccc2n1C1CCN(CCCC(c2ccc(F)cc2)c2ccc(F)cc2)CC1` [Pimozide] + Nc1nc2[nH]cc(CCc3ccc(C(=O)N[C@@H](CCC(=O)O)C(=O)O)cc3)c2c(=O)[nH]1 [Pemetrexed] (partner 0.2 µM), the relative viability with NCI-H2342 (first compound 0.08 µM) was determined as 0.796; in the assay with NCI-H2342 (first compound 0.253 µM), 0.757; with NCI-H2342 (first compound 0.8 µM), 0.634; with NCI-H2342 (first compound 2.53 µM) it was 0.749; in the assay with NCI-H2342 (first compound 8 µM), 0.752; with NCI-H522 (first compound 0.08 µM) it was 1.04. Besides, the relative viability in the assay with NCI-H522 (first compound 0.253 µM) was determined as 0.848; with NCI-H522 (first compound 0.8 µM) it was 0.832; with NCI-H522 (first compound 2.53 µM) it was 0.818; with NCI-H522 (first compound 8 µM), 0.904; in the assay with SW 900 (first compound 0.08 µM), 0.483; with SW 900 (first compound 0.253 µM) it was 0.465. Moreover, the relative viability worked out at 0.447 with SW 900 (first compound 2.53 µM); 0.418 with SW 900 (first compound 8 µM); 0.818 in the assay with NCI-H1648 (first compound 0.08 µM); 0.573 in the assay on NCI-H1648 (first compound 0.8 µM); 0.673 with NCI-H1648 (first compound 2.53 µM); 0.612 in the assay on NCI-H1648 (first compound 8 µM). The relative viability in the assay on NCI-H1563 (first compound 0.08 µM) came out at 0.606; with NCI-H1563 (first compound 0.253 µM) it was 0.849; in the assay on NCI-H1563 (first compound 0.8 µM), 0.745; with NCI-H1563 (first compound 2.53 µM), 0.781; with NCI-H1563 (first compound 8 µM), 0.734.

`O=C(O)CCCCC(CCSCc1ccccc1)SCc1ccccc1` (configuration not stated) [CPI-613] + CC(=O)c1c(C)c2cnc(Nc3ccc(N4CCNCC4)cn3)nc2n(C2CCCC2)c1=O [Palbociclib] (partner 0.5 µM): the relative viability with NCI-H2342 (first compound 5 µM) came to 0.497; in the assay on NCI-H2342 (first compound 15.81 µM), 0.536; with NCI-H2342 (first compound 50 µM), 0.492; with NCI-H2342 (first compound 158.11 µM), 0.52; with NCI-H2342 (first compound 500 µM), 0.588; in the assay with NCI-H522 (first compound 5 µM) it was 1.03. The relative viability is 1.13 in the assay with NCI-H522 (first compound 15.81 µM); 1.08 with NCI-H522 (first compound 50 µM); 0.708 in the assay on NCI-H522 (first compound 158.11 µM); 0.301 in the assay with NCI-H522 (first compound 500 µM); 0.57 in the assay on SW 900 (first compound 5 µM); 0.557 in the assay on SW 900 (first compound 50 µM). For the same molecule, the relative viability in the assay with SW 900 (first compound 158.11 µM) was found to be 0.208; in the assay on SW 900 (first compound 500 µM), 0.0276; with NCI-H1648 (first compound 5 µM), 0.285; in the assay with NCI-H1648 (first compound 15.81 µM), 0.302; with NCI-H1648 (first compound 50 µM), 0.299; in the assay with NCI-H1648 (first compound 158.11 µM), 0.192. The molecule further displayed a relative viability in the assay with NCI-H1648 (first compound 500 µM) of 0.128.

On to `Cc1cnc(-c2cnc(NCCNc3ccc(C#N)cn3)nc2-c2ccc(Cl)cc2Cl)[nH]1` + CC(=O)c1c(C)c2cnc(Nc3ccc(N4CCNCC4)cn3)nc2n(C2CCCC2)c1=O [Palbociclib] (partner 0.5 µM), for which the relative viability in the assay on NCI-H2342 (first compound 0.08 µM) amounted to 0.522; with NCI-H2342 (first compound 0.253 µM) it was 0.516; in the assay with NCI-H2342 (first compound 0.8 µM), 0.557; in the assay on NCI-H2342 (first compound 2.53 µM), 0.463; in the assay with NCI-H522 (first compound 0.08 µM), 1.15; with NCI-H522 (first compound 0.253 µM), 0.927. Moreover, the relative viability in the assay on NCI-H522 (first compound 0.8 µM) was determined as 0.974; with NCI-H522 (first compound 2.53 µM) it was 0.862; in the assay on SW 900 (first compound 0.08 µM), 0.565; in the assay on SW 900 (first compound 0.253 µM), 0.513; with SW 900 (first compound 0.8 µM), 0.528; in the assay on SW 900 (first compound 2.53 µM), 0.515. Also, the relative viability came to 0.267 in the assay with NCI-H1648 (first compound 0.08 µM), 0.243 in the assay on NCI-H1648 (first compound 0.253 µM), 0.265 in the assay on NCI-H1648 (first compound 0.8 µM) and 0.265 in the assay with NCI-H1648 (first compound 2.53 µM).

As for `Cc1cnc(-c2cnc(NCCNc3ccc(C#N)cn3)nc2-c2ccc(Cl)cc2Cl)[nH]1` + CC(=O)Nc1cccc(-n2c(=O)n(C3CC3)c(=O)c3c(Nc4ccc(I)cc4F)n(C)c(=O)c(C)c32)c1 [Trametinib] (partner 0.02 µM), the relative viability in the assay on NCI-H2342 (first compound 0.08 µM) was 0.923; in the assay on NCI-H2342 (first compound 0.253 µM), 0.653; with NCI-H2342 (first compound 0.8 µM), 0.801; with NCI-H2342 (first compound 2.53 µM), 0.697; in the assay with NCI-H522 (first compound 0.08 µM) it was 0.909; with NCI-H522 (first compound 0.253 µM) it was 0.719. Moreover, the relative viability was determined as 0.799 in the assay on NCI-H522 (first compound 0.8 µM); 0.722 with NCI-H522 (first compound 2.53 µM); 0.905 in the assay with SW 900 (first compound 0.08 µM); 0.629 with SW 900 (first compound 0.253 µM); 0.772 in the assay with SW 900 (first compound 0.8 µM); 0.765 with SW 900 (first compound 2.53 µM). For the same molecule, the relative viability turned out to be 0.5 in the assay on NCI-H1648 (first compound 0.08 µM), 0.381 in the assay with NCI-H1648 (first compound 0.253 µM), 0.476 in the assay with NCI-H1648 (first compound 0.8 µM) and 0.456 in the assay on NCI-H1648 (first compound 2.53 µM).

Take `O=c1[nH]c2ccccc2n1C1CCN(CCCC(c2ccc(F)cc2)c2ccc(F)cc2)CC1` [Pimozide] + CC(=O)Nc1cccc(-n2c(=O)n(C3CC3)c(=O)c3c(Nc4ccc(I)cc4F)n(C)c(=O)c(C)c32)c1 [Trametinib] (partner 0.02 µM): the relative viability with NCI-H2342 (first compound 0.08 µM) turned out to be 0.661; in the assay on NCI-H2342 (first compound 0.253 µM), 0.872; with NCI-H2342 (first compound 0.8 µM), 0.676; in the assay on NCI-H2342 (first compound 2.53 µM) it was 0.826; in the assay with NCI-H2342 (first compound 8 µM), 0.759; with NCI-H522 (first compound 0.08 µM), 0.738. For the same molecule, the relative viability amounted to 0.751 with NCI-H522 (first compound 0.253 µM); 0.733 with NCI-H522 (first compound 0.8 µM); 0.746 with NCI-H522 (first compound 2.53 µM); 0.811 with NCI-H522 (first compound 8 µM); 0.743 in the assay with SW 900 (first compound 0.08 µM); 0.801 in the assay on SW 900 (first compound 0.253 µM). For the same molecule, the relative viability was 0.72 with SW 900 (first compound 2.53 µM); 0.802 with SW 900 (first compound 8 µM); 0.423 in the assay with NCI-H1648 (first compound 0.08 µM); 0.34 in the assay with NCI-H1648 (first compound 0.8 µM); 0.373 in the assay with NCI-H1648 (first compound 2.53 µM); 0.416 with NCI-H1648 (first compound 8 µM).
